# Patent publication US12428412B2 (DANA-FARBER CANCER INSTITUTE, INC., priority 2018, dated 2025)
# Entries after “also recorded” stand apart in the source; their conditions may differ.
# Key:
# CBP = target: T1, CBP (Mus musculus, UniProt P45481); assay: Immunohistochemistry (IHC) staining of liver from MTD study, CBP; type: in vivo; details: normal mice, 40 mpk, 14-day treatment
# T1 construct: from tissue; host or cells: mouse liver (CD1 mice)
# From the text: Immunohistochemistry (IHC) staining was used to examine a liver from MTD study. […] No changes in CBP and H3K27Ac levels were observed.
# EP300 = target: T2, EP300 (Homo sapiens, UniProt Q09472); assay: Cellular degradation assay (immunoblot) in Kelly NB cells, EP300; type: cell-based; details: dose or time dependent
# T2 construct: Whole cell lysates were collected using ice cold lysis buffer; endogenous in cells; host or cells: Kelly neuroblastoma cells (incl. Ch2.2, LACZ and CRBN knockout lines)
# T2 sequence (Q09472 whole entry): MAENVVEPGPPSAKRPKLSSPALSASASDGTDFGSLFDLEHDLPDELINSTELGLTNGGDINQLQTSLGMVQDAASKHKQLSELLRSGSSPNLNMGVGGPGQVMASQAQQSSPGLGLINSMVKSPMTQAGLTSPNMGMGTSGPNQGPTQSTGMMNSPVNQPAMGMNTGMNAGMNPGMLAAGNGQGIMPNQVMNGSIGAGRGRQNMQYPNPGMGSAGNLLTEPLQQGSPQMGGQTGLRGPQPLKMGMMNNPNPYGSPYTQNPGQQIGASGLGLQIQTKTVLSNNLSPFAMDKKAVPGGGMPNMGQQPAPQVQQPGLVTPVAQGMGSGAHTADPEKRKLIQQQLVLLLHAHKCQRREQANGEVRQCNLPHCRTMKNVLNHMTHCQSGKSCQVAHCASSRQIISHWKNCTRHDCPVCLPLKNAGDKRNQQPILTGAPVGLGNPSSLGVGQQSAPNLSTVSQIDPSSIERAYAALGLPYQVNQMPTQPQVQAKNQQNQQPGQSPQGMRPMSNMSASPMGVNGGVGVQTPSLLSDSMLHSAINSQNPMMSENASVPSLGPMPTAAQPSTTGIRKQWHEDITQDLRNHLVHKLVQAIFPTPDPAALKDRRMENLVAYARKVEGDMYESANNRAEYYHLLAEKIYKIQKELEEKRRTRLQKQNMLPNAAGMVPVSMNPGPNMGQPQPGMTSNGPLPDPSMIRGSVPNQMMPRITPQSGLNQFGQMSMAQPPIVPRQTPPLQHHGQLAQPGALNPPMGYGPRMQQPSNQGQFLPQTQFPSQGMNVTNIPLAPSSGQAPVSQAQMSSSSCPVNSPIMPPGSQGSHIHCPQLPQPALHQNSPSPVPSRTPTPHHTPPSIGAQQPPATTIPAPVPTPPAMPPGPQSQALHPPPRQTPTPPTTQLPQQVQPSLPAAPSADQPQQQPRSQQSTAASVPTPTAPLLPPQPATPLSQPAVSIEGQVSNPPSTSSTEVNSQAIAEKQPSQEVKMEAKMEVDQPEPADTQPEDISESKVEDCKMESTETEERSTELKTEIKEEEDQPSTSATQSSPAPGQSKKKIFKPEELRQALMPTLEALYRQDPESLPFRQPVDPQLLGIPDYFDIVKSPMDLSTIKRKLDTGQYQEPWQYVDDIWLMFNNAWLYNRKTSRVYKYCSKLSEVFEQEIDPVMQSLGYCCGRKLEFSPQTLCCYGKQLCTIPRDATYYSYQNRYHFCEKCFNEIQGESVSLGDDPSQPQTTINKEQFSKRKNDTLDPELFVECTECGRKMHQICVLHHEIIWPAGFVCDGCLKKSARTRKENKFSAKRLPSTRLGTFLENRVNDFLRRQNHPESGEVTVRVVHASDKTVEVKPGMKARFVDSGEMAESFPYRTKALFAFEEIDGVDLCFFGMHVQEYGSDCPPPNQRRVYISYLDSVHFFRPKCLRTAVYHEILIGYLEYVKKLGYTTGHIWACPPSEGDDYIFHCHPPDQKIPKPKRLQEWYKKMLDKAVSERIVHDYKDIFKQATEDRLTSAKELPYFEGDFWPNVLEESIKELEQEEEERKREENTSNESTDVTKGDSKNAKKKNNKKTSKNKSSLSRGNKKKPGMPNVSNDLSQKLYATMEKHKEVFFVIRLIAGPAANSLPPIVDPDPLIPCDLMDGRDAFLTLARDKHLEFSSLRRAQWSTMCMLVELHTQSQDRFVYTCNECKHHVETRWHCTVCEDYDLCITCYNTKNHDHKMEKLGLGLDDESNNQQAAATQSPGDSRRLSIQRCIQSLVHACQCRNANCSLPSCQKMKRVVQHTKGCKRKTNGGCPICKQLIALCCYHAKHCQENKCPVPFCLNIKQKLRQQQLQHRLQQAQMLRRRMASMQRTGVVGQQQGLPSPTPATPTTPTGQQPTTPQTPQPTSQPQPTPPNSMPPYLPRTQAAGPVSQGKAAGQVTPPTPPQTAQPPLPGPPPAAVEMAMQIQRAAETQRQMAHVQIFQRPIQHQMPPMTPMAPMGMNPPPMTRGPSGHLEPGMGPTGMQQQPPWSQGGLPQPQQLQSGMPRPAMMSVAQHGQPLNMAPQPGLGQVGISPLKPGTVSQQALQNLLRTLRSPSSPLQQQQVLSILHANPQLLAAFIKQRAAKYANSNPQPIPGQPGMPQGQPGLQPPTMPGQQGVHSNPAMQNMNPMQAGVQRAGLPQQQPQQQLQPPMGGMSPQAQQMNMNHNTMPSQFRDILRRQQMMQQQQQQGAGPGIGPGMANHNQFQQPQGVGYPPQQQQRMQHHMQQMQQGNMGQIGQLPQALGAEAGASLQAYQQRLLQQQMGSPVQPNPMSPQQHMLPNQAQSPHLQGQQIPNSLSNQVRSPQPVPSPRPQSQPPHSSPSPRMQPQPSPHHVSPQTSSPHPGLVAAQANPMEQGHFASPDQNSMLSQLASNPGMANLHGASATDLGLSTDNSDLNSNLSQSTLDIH
# Description: Kelly Neuroblastoma cells were seeded at 1,000,000 cells per well in 6 well plates and were treated in a dose-dependent manner for 24 to 72 hours. Whole cell lysates were collected using ice cold lysis buffer [300 mM NaCl, 50 mM Tris-HCl, pH 7.5, 0.5% Triton X-100, 1% SDS, 1 mM dithiothreitol (DTT), Roche® protease inhibitor cocktail (1:000), 25 units/mL Benzonase] and blotted at a protein concentration of 20 μg. Histone extraction was performed using the EpiQuik™ Total Histone Extraction Kit (OP-0006-100, Epigentek) and blotted at a protein concentration of 4 μg.
# Whole cell lysates were resolved in NuPAGE® 3-8% Tris-Acetate polyacrylamide gels (EA03785BOX, Invitrogen™) and histone extraction lysates in Bolt 4-12% Bis-Tris polyacrylamide gels (NWO4125BOX, Invitrogen™). Afterwards, gels were transferred to nitrocellulose membranes (LC2001, Invitrogen™). […]
# The experimental protocol is the same as in Example 24. The protein level was determined by immunoblot using EP300 antibody, CBP antibody or H3K27ac antibody. […]
# U266 cells = assay: 4-day growth inhibition assay (ATPlite / cell counting kit), U266 cells; type: cell-based; details: 0-10 μM
# Description: An aliquot of the ATP standard solution (ATPlite™ 1000 assay kit, PerkinElmer®, USA) was used to prepare a dilution series in water. A series of 100 μL of complete culture medium was pipetted without cells into the wells of the plate. To each well was added 50 μL of the mammalian cell lysis solution, and the plate was shaken for 5 minutes in an orbital shaker at 700 rpm. 10 μL of the ATP dilution series was added to the wells, and the plate was shaken for 5 minutes in an orbital shaker at 700 rpm. 50 μL of the substrate solution was added and the plate was shaken for 5 minutes in an orbital shaker at 700 rpm. The plate dark adapted the plate for 10 minutes prior to measuring the luminescence and then preparing a standard curve.
# HAT (EP300) domain = target: T3, HAT (EP300) domain (Homo sapiens, UniProt Q09472); assay: AlphaScreen assay, HAT (EP300) domain; type: binding
# T3 sequence (Q09472 1287-1663 limits assumed): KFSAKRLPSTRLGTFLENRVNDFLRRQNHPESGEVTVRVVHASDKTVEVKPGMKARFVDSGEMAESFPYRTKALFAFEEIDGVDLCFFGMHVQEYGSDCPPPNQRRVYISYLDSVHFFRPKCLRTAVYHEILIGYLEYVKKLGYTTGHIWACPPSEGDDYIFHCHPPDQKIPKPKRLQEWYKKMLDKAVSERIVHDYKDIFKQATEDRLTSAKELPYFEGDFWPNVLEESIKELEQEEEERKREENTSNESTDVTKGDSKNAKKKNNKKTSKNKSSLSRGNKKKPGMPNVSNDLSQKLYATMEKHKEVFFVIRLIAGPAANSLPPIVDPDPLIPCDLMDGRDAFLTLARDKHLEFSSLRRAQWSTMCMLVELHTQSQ
# Description: The AlphaScreen™ assay was performed in 384-well plate format using white AlphaPlate (PerkinElmer®, USA), and transfer of pre-diluted compound (100 nL) was performed using a Janus Workstation (PerkinElmer®, USA). All subsequent steps were carried out in assay buffer (50 mM 4-(2-hydroxyethyl)-1-piperazineethanesulfonic acid (HEPES), pH 7.5, 0.1% (wt/vol) bovine serum albumin (BSA) and 0.01% (vol/vol) Tween-20). In brief, 10 μL of assay buffer containing enzyme (2 nM Final) was pre-incubated for 15 min with dilutions of compound. The enzyme reaction was initiated by the addition of substrate (5 μL) consisting of acetyl Co-A 2-OG (5 μM Final).
# FAS final concentration was 10 μM. Histone tail-GGK Biotin final concentration was 100 nM Final. The enzyme reaction was allowed to proceed for 30 minutes and was stopped by the addition of 5 μL of assay buffer containing ethylenediaminetetraacetic acid (EDTA) (40 mM) and NaCl (1200 mM). The final concentration of dimethyl sulfoxide (DMSO) was 1%. Streptavidin donor beads (0.08 mg/mL) and protein-A-conjugated acceptor beads (0.08 mg/mL) were preincubated for 1 h with antibody to methyl mark (300 ng/mL Final), and the presence of histone H3 product acetylation mark was detected using the preincubated AlphaScreen™ beads (5 μL). Detection was allowed to proceed for 2 hours at rt, and the assay plates were read on the Envision™ 2104 plate reader. Data were normalized to the (no-enzyme) control, and the IC50 values were determined via nonlinear regression curve fit using GraphPad Prism (FIG. 4E-FIG. 4H).
# AlphaScreen™ assay was used to determine the binding of inventive degrader compound toward both CRBN and HAT domain. The experimental protocol is the same as in Example 26.
# T1 sequence (P45481 whole entry): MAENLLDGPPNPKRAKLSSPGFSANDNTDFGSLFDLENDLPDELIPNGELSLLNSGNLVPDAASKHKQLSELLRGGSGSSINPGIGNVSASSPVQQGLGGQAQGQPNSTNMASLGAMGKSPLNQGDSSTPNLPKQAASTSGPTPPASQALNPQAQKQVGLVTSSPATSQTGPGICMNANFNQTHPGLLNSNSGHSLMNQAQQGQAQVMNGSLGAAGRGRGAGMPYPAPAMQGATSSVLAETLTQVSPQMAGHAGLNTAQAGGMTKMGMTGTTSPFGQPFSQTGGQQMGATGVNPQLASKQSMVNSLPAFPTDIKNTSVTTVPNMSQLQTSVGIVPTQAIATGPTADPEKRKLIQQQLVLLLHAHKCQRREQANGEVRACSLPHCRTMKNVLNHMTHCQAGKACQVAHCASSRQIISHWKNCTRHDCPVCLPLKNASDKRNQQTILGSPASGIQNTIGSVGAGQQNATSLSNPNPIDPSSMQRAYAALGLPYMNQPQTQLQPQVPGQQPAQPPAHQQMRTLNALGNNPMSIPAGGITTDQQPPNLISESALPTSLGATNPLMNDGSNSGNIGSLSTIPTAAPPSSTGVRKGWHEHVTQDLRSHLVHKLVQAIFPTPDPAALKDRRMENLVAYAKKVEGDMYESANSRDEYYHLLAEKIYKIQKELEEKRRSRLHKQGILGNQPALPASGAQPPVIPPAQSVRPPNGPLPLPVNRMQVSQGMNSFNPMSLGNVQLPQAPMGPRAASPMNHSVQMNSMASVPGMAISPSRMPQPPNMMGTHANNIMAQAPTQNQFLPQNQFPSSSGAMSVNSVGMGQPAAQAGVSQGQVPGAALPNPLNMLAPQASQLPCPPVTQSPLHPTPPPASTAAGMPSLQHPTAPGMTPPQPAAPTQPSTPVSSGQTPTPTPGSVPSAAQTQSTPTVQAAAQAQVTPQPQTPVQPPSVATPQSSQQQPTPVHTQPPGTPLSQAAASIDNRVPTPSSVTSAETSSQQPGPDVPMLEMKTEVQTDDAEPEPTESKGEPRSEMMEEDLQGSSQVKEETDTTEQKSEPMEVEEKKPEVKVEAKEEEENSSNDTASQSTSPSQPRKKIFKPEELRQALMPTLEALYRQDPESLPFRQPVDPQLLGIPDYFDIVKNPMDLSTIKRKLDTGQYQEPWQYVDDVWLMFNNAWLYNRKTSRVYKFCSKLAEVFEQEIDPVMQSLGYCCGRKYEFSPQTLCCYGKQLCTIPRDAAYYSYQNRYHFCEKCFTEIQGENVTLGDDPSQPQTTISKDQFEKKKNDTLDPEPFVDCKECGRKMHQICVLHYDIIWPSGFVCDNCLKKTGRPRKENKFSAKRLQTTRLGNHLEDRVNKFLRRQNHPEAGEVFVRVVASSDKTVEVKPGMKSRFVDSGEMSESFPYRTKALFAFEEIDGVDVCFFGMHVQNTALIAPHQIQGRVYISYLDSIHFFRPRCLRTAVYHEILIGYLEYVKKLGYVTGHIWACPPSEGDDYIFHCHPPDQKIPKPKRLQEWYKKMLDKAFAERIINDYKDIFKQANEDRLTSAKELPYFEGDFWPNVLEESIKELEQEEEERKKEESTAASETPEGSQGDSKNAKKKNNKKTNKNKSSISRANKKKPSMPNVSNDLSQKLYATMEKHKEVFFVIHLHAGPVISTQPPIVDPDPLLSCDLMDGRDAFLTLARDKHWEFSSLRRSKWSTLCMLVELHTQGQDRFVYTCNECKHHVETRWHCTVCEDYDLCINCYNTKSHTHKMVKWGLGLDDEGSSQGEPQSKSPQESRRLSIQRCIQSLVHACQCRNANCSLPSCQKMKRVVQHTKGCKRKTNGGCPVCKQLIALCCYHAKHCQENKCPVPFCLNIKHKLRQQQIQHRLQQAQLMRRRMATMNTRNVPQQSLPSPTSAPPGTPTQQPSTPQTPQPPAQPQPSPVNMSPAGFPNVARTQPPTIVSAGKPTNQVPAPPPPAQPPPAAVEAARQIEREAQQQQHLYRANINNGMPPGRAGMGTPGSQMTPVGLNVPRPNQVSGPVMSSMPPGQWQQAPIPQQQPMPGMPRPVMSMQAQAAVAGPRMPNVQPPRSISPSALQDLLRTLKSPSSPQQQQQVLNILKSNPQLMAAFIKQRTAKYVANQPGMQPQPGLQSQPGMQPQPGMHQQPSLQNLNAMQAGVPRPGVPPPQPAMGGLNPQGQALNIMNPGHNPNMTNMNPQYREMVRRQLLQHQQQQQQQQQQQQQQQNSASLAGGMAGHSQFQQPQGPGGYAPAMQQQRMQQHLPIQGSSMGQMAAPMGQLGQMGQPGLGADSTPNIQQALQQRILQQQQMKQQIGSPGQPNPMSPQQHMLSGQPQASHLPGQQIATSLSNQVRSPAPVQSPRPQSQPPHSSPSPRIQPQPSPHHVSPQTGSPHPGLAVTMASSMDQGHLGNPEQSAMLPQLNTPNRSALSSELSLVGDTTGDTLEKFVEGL
smiles,measurement,setting,value
"C[C@H](N(Cc1ccc(F)cc1)C(=O)CN1C(=O)O[C@@]2(CCc3cc(NC(=O)CCCCCCCCCCCNc4ccc5c(c4)C(=O)N(C4CCC(=O)NC4=O)C5=O)ccc32)C1=O)C(F)(F)F (stereo partly drawn) [CPD 1, 12-((2-(2,6-dioxopiperidin-3-yl)-1,3-dioxoisoindolin-5-yl)amino)-N—((R)-3′-(2-((4-fluorobenzyl)((S)-1,1,1-trifluoropropan-2-yl)amino)-2-oxoethyl)-2′,4′-dioxo-2,3-dihydrospiro[indene-1,5′-oxazolidin]-5-yl)dodecanamide]",CBP level in liver tissue,CBP,No changes
same,EP300 degradation,EP300,selective degradation of EP300; also recorded: clear degradation of EP300
same,growth inhibition compared with A485,U266 cells,outperformed inhibitor A485
same,binding to HAT (EP300) domain,HAT (EP300) domain,bound and bind
